Data from patent US20080269343A1, “GALENIC FORMULATIONS OF ORGANIC COMPOUNDS” (priority 2004, published 2008).

Experiments:
[1] = Hygroscopicity of the drug substance; type: physicochemical
[2] = Steady-state pharmacokinetics of aliskiren 300 mg alone, digoxin interaction study, Day 7 (Example 8); type: in vivo, human; conditions: 300 mg daily, Day 7, healthy volunteers N 21; for AUC / Cmax / Tmax: human, in vivo, oral, 300 mg
Procedure: The study employed was an open-label, two-period, multiple-dose design to evaluate the pharmacokinetic drug-drug interaction between digoxin and aliskiren when given alone or in combination to healthy volunteers. A total of 22 healthy volunteers were enrolled into the study. The subjects were admitted to the study center at least 24 hours prior to the initial dosing of aliskiren for baseline evaluation. If subjects met all eligibility criteria at baseline, they were randomized into the study and confined to the clinic on days 1-7 and days 17-33. All study medications were taken under fasted condition. The study was completed with the end of study evaluations on Day 34, after the last blood sample was collected.
In period 1 (Days 1-7), subjects received a single 300 mg daily dose of aliskiren for 7 days. Period 1 was followed by a ten (10) day washout period. In period 2, subjects received a single 0.25 mg daily dose of digoxin for 9 days (Days 18-26) and aliskiren 300 mg once a day with a single 0.25 mg daily dose of digoxin co-administered for 7 days (Days 27-33).
Pharmacokinetic blood sampling for aliskiren alone occurred on Day 7 up to 24 hours post dose (5-mL blood samples were collected into lithium heparin tubes on Day 7 of the study at pre-dose, 0.5, 1, 2, 3, 4, 6, 8, 12, 16 and 24 hours after dosing).

[3] = Steady-state pharmacokinetics of aliskiren 300 mg alone, furosemide interaction study, Day 13 (Example 6); type: in vivo, human; conditions: 300 mg daily, Day 13, healthy volunteers N 21; for AUC / Cmax / Tmax: both sexes, human, in vivo, oral, 300 mg
Procedure: An open-label, 2-period study in healthy subjects was carried out to evaluate the pharmacokinetic drug-drug interaction between furosemide and aliskiren when given alone or in combination. A total of 22 healthy male and female volunteers enrolled and 21 completed all study procedures and treatments. The subjects were admitted to the study center for at least 12 hours prior to the initial dosing for baseline evaluation, and confined to the clinic for entire study. Subjects were given an end-of-study evaluation on Day 17 approximately 24 h after the last treatment of aliskiren. For all treatment periods, subjects fasted for a minimum of 10 hours pre-dose to 4 hours post-dose. Subjects were considered to have completed the study when all safety and pharmacokinetic evaluations had been completed.
In Period 1 (Study Days 1-3), subjects received a single 20 mg daily dose of furosemide. In Period 2 (Study Days 7-16), subjects received 300 mg of aliskiren once a day for a total of 10 days with a single 20 mg daily dose of furosemide co-administered for three days (Study Days 14-16), starting Day 14 of the study. There was a three day wash out between Period 1 and 2 (Study Days 4-6).
Pharmacokinetic blood sampling for aliskiren alone occurred on Study Day 13 up to 24 hours post-dose (5-mL blood samples were collected into lithium heparin tubes on Day 13 of the study at pre-dose, 0.5, 1, 2, 4, 6, 8, 12, 16 and 24 hours after dosing).

[4] = Ranges of arithmetic mean plasma pharmacokinetic parameters provided by the 300 mg solid oral dosage form (summary of the studies); type: in vivo; conditions: human, range of study means
Procedure: (§1) For example, the present invention provides a solid oral dosage form comprising about 300 mg of aliskiren free base, or a respective amount of a pharmaceutically acceptable salt thereof, and a carrier medium, said dosage form providing an arithmetic mean maximum plasma concentration of aliskiren ranging from about 186 to about 394 ng/mL between about 0.25 and about 6 hours following administration of a single dosage of said dosage form.
as §1, with “Furthermore,” for “For example,”, “mg” for “mg of”, “AUC0-96” for “maximum plasma concentration”, “1480” for “186”, “1859 ng·h/mL” for “394 ng/mL between about 0.25 and about 6 hours”, “form. […]” for “form.”
The above description fully discloses the invention including preferred embodiments thereof. […] Arithmetic means for Cmax are calculated using the actual time points when the Cmax is observed whereas for the mean concentration versus time plots the nominal time values are employed.

- hygroscopicity [1]: highly hygroscopic
- Cmin^SS ([2]; Geometric Mean): 25.4 ng/mL
- AUCτ ([2]; Max): 2710 ng·h/mL
- Cmax^SS ([2]; Max): 478 ng/mL
- Cmin^SS ([2]; Max): 41.5 ng/mL
- tmax^SS ([2]; Max): 6.00 h
- Cmin^SS ([2]; Median): 24.1 ng/mL
- AUCτ ([2]; Min): 943 ng·h/mL
- Cmax^SS ([2]; Min): 131 ng/mL
- Cmin^SS ([2]; Min): 13.1 ng/mL
- tmax^SS ([2]; Min): 0.50 h
- Cmin^SS ([2]; arithmetic mean): 26.5 ng/mL
- AUC ([2]; Geometric Mean): 1600 ng·h/mL
- Cmax ([2]; Geometric Mean): 246 ng/mL
- Tmax ([2]; Geometric Mean): 1.39 h
- AUC ([2]; Median): 1560 ng·h/mL
- Cmax ([2]; Median): 234 ng/mL
- Tmax ([2]; Median): 1 h
- AUC ([2]; arithmetic mean): 1670 ng·h/mL
- Cmax ([2]; arithmetic mean): 261 ng/mL
- Tmax ([2]; arithmetic mean): 1.93 h
- AUCτ ([3]; Max): 3973 ng·h/mL
- Cmax^SS ([3]; Max): 652 ng/mL
- Cmin^SS ([3]; Max): 52.30 ng/mL
- tmax^SS ([3]; Max): 6.0 h
- Cmin^SS ([3]; Median): 24.40 ng/mL
- AUCτ ([3]; Min): 471 ng·h/mL
- Cmax^SS ([3]; Min): 116 ng/mL
- Cmin^SS ([3]; Min): 6.26 ng/mL
- tmax^SS ([3]; Min): 0.5 h
- Cmin^SS ([3]; arithmetic mean): 25.80 ng/mL
- AUC ([3]; Median): 1810 ng·h/mL
- Cmax ([3]; Median): 284 ng/mL
- Tmax ([3]; Median): 1 h
- AUC ([3]; arithmetic mean): 1890 ng·h/mL
- Cmax ([3]; arithmetic mean): 334 ng/mL
- Tmax ([3]; arithmetic mean): 1.5 h
- AUC ([4]; about 300 mg every 24 hours, steady state, read-out: arithmetic mean AUC0-τ of aliskiren): 1670 to 2520 ng·h/mL
- AUC(0-t) ([4]; single dosage of about 300 mg free base, read-out: arithmetic mean AUC0-96 of aliskiren): 1480 to 1860 ng·h/mL
Compound: COCCCOc1cc(C[C@@H](C[C@H](N)[C@@H](O)C[C@H](C(=O)NCC(C)(C)C(N)=O)C(C)C)C(C)C)ccc1OC [aliskiren, 2(S),4(S),5(S),7(S)—N-(3-amino-2,2-dimethyl-3-oxopropyl)-2,7-di(1-methylethyl)-4-hydroxy-5-amino-8-[4-methoxy-3-(3-methoxy-propoxy)phenyl]-octanamide]
